Laboratory results: patent US20170355760A1, “METHODS FOR MODULATING THE GLYCOSYLATION PROFILE OF RECOMBINANT PROTEINS USING SUGARS” (AbbVie Inc., priority 2014, published 2017)

How the values were obtained:
Assay type in all cases: cell-based, Chinese Hamster
CHO cell line 1 [1] = experiment: Harvest antibody titer (Poros A Protein A affinity HPLC); conditions: for harvest titer compared to unsupplemented control: 1-50 mM supplementation
Experimental: (§1) A recombinant Chinese Hamster Ovary (CHO) cell line (Cell Line 1) expressing a humanized monoclonal antibody (Antibody 1) was evaluated in shaker flask cultures. The cell line was of CHO DUX-B11 origin based on a dhfr (dihydrofolate reductase) expression system, and cultured in a chemically defined basal and chemically-defined feed media. Each of the respective cultures were supplemented with selected monosaccharides and oligosaccharides to evaluate for their potential impact on the resulting N-glycan oligosaccharide profile. All sugars were purchased from Sigma-Aldrich (St. Louis, Mo.), and dissolved at the concentrations referenced below in the cell culture media. Unless specified otherwise, all sugars evaluated were in their D-form. In preparation of the cultures, the cell lines were expanded through seed train inoculums to generate enough cells for inoculation.
Antibody titers were measured from crude cell culture harvests on a Poros A™ (Life Technologies, Carlsbad, Calif.) affinity column using an Agilent (Santa Clara, Calif.) 1200 Series HPLC, or equivalent, operating with a low pH, step elution gradient with detection at 280 nm. Absolute concentrations were assigned with respect to reference standard calibration curves.

CHO cell line 1 [2] = experiment: Viable cell density and cell viability of shaker flask cultures (trypan blue exclusion, Cedex); conditions: for cell viability profile: 1-50 mM supplementation; for peak VCD compared to control: 50 mM supplementation; for cell growth compared to the unsupplemented control: sugar 1, 10, 25, 50 mM in basal media, shaker flask
Experimental: as §1
Viable cell density (VCD) and cell viability values were measured through trypan blue exclusion via Cedex automated cell counters (Roche Applied Science, Indianapolis, Ind.). Initial viable cell density and viability in the cultures were targeted towards the same value. Immediately after inoculation, only a handful of each of the shake flasks were sampled for VCD and viability, and the results were averaged. All Day 0 values amongst these flasks were thus reported to be at this average. The cultures were harvested on Process Days 9-10, or when cell viability dropped below 50%, whichever occurred first.

[3] = system: Cell Line 1 expressing a humanized monoclonal antibody (Antibody 1); experiment: N-glycan oligosaccharide profiling of Protein A purified antibody (reduced heavy chain, RP-HPLC/Q-TOF MS); conditions: for redirecting the N-glycan glycoform profile: 250 mL shaker flask cultures, defined supplementation range
Experimental: as §1
Purified antibodies subjected to additional analytical characterization were purified using MabSelect™ Protein A (GE Healthcare, Piscataway, N.J.) using a low pH, step elution gradient, followed by neutralization, and subsequently buffer exchanged when necessary using Amicon centrifugal filters (EMD Millipore, Billerica, Mass.) according to the manufacturer's recommended procedure.
The heavy chain of adalimumab was analyzed using an HPLC (Agilent 1260, Santa Clara, Calif.) with a reversed phase column (Vydac, C4, 1×150 mm, 5μ particle size) coupled to a Q-TOF mass spectrometer (Agilent, 6510). Protein A purified samples from cell culture harvests were first reduced using DTT at 37° C. for 30 minutes. The samples were then loaded using 95% mobile phase A (0.08% formic acid and 0.02% TFA in water) and 5% mobile phase B (0.08% formic acid and 0.02% TFA in acetonitrile), and then eluted using a gradient of increasing levels of mobile phase B. The flow rate was 50 μL/min and the column temperature was set to 60° C. The mass spectrometer was operated in positive ion mode with an ion spray voltage of 4500 volts and a source temperature of 350° C. Resolved peaks centered on the known masses of different N-glycans was subsequently used to identify the different types of N-glycans, and the relative peak heights were used to quantitate their respective levels.

[4] = across all supplemented concentrations (1-50 mM)
[5] = each of the concentrations evaluated (1-50 mM)
[6] = 1-50 mM vs unsupplemented control
[7] = the higher concentrations evaluated

Structure (SMILES) | harvest titer compared to unsupplemented control (CHO cell line 1 [1]) | cell viability profile (CHO cell line 1 [2]) | G0F N-glycan levels [3, 6] | N-glycan oligosaccharide profile change upon supplementation [3, 6] | redirecting the N-glycan glycoform profile [3] | peak VCD compared to control (CHO cell line 1 [2]) | cell growth compared to the unsupplemented control (CHO cell line 1 [2]) | also measured
O=C(CO)[C@H](O)[C@H](O)[C@H](O)CO [psicose] | slightly lower compared to the control | no significant changes | dropped in an almost equal fashion | increase Man5, G0F-GlcNAc, and G1F species in a psicose concentration-dependent manner | toward the high mannose type | – | – | harvest titer ratio (CHO cell line 1 [1]; [4]): > 0.88; peak VCD compared to the unsupplemented control (CHO cell line 1 [2]; [5]): lower peak VCD
O=C(CO)[C@@H](O[C@H]1O[C@H](CO)[C@@H](O)[C@H](O)[C@H]1O)[C@H](O)[C@H](O)CO [turanose] | small drop in harvest titer | did not show a very significant adverse impact | – | increase of G1F and G2F species, which came at the expense of the G0F and G0F-GlcNAc species | toward the complex, galactosylated type | small nominal drop | did not show a very significant adverse impact towards cell growth | drop in harvest titer (CHO cell line 1 [1]; 50 mM (largest drop)): 10%; increase in G1F ([3]; 1 mM): 0.2%; increase in G2F ([3]; 10 mM): 3%; increase in G2F ([3]; 25 mM): 7%; increase in G1F ([3]; 50 mM): 14%
OC[C@H]1O[C@H](OC[C@H]2O[C@H](O[C@]3(CO)O[C@H](CO)[C@@H](O)[C@@H]3O)[C@H](O)[C@@H](O)[C@@H]2O)[C@H](O)[C@@H](O)[C@H]1O [raffinose] | closely approximated each other | closely approximated each other | – | – | toward the high mannose type | – | comparable to the unsupplemented control up to a raffinose concentration of 10 mM | peak VCD compared to the unsupplemented control (CHO cell line 1 [2]; [7]): lower than that of the unsupplemented control; increase in Man5, G0F-GlcNAc, and G1F compared to the unsupplemented control ([3]; concentration-dependent, 1-50 mM): > 2%
OC[C@H]1O[C@H](OC[C@H]2OC(O)(CO)[C@@H](O)[C@@H]2O)[C@H](O)[C@@H](O)[C@@H]1O (stereo partly drawn) [palatinose] | slightly less antibody product | reasonably consistent with each other | significant decrease | increase Man5, G0F-GlcNAc, G1F, and G2F N-glycans in a palatinose concentration-dependent manner | toward the high mannose type | – | only the lowest concentration (1 mM) supported a cell growth profile that closely approximated that of the unsupplemented control | peak VCD compared to the unsupplemented control (CHO cell line 1 [2]; [7]): lower peak viable cell densities
OC[C@H]1O[C@H](O[C@H]2O[C@H](CO)[C@@H](O)[C@H](O)[C@H]2O)[C@H](O)[C@@H](O)[C@@H]1O [trehalose] | slightly lower values | not affected | significant decrease | more Man5 and G0F-GlcNAc levels | toward the high mannose type | – | – | harvest titer ratio (CHO cell line 1 [1]; [4]): > 0.85; peak VCD compared to the unsupplemented control (CHO cell line 1 [2]; [5]): lower peak VCD
OC[C@H]1O[C@@](CO)(O[C@H]2O[C@H](CO)[C@@H](O)[C@H](O)[C@H]2O)[C@@H](O[C@H]2O[C@H](CO)[C@@H](O)[C@H](O)[C@H]2O)[C@@H]1O [melezitose] | nominally reduce the harvest titer | no adverse impact | – | largest % impact on the protein glycosylation profile | toward the complex, galactosylated type | drop in peak VCD | only the 50 mM condition had an adverse impact on cell growth | harvest titer ratio (CHO cell line 1 [1]; 10 mM (lowest result observed)): 0.82; increase in G1F ([3]; 1 mM): 1%; increase in G1F ([3]; 10 mM): 9%; increase in G1F ([3]; 25 mM): 20%; increase in G1F ([3]; 50 mM): 28%; G0 type glycans [3, 6]: almost equal drop in relative value; G2 N-glycan change [3, 6]: mirrored these results, albeit at a much lower overall percent change; Man5 levels ([3]; all tested concentrations): Reduced levels
OC[C@H]1O[C@@H](O[C@H]2[C@H](O)[C@@H](O)C(O)O[C@@H]2CO)[C@H](O)[C@@H](O)[C@H]1O (stereo partly drawn) [lactose] | small decrease in harvest titers | no adverse impact | almost equal drop | – | toward the complex, galactosylated type | noticeably lower than the control | no adverse impact towards cell growth performance | relative harvest titer (CHO cell line 1 [1]; 1 mM (lowest across tested concentrations)): 0.87; increase in G1F species ([3]; at most, across 1-50 mM): ≤ 4%; increase in G2F species ([3]; at most, across 1-50 mM): ≤ 2%
OC[C@H]1O[C@@H](O[C@@H]2[C@@H](CO)OC(O)(CO)[C@H]2O)[C@H](O)[C@@H](O)[C@H]1O (mixture of isomers) [lactulose] | only nominally impacted | no adverse impact | approximately equal drop | lactulose dependent increase in Man5, G0F-GlcNAc, and G1F N-glycans | toward the high mannose type | drop in VCD | only the 50 mM level of this sugar had a slightly adverse impact to cell growth performance | harvest titer ratio (CHO cell line 1 [1]; 50 mM): 0.89
